One experiment relates to Neutrophils. Nature of the experiment: High throughput transmigration assay (Example 9), chemorepulsion. Type of experiment: cell-based, human.
A further experiment concerns CD4+. The description is as above. The class given is cell-based, human. To be noted: mean of three donors at concentration of highest activity, range 0.00125-1.25 μM. The source says:
(§1) An agent's repellent index is the ratio of chemorepulsion (CR) to spontaneous migration (SM) induced by the agent, i.e., [(CR)/(SM)]. […] For example, in calculating a RI for an agent, migratory responses including chemorepulsion (CR) and spontaneous migration (SM) may be measured over several decades or log scales of concentration. If, over any two consecutive measurements at concentrations which differ by at least 10 fold, the ratio of CR to SM at each of the two contiguous measurements is equal to or greater than 1.2, then the agent is considered a validated chemorepellent.
(§2) For primary human T cells, up to 80 ml of blood is drawn from a human donor in sodium heparin Vacutainer tubes (Becton-Dickinson). The blood (between 10 and 15 ml per tube) is then layered onto 30 ml of Lymphocyte Separation Medium (LSM) (Cellgro, Herndon, Va.) in a 50 ml conical centrifuge tube and centrifuged for 20 minutes at 2440×g in a swinging bucket rotor. After removing the majority of the plasma from the top of each tube, the peripheral blood mononucleocyte (PBMC) layer is removed and transferred to fresh 50 ml conical centrifuge tubes. The tubes are then filled to 50 ml with IMDM and centrifuged for 10 minutes at 500×g. All but approximately 5 ml of the supernatant is then removed and the pellet resuspended with 25 ml IMDM and the centrifugation repeated. After removal of the supernatant, the cells are resuspended and combined to one 50 ml tube (per subject) and brought to a total volume of 50 ml. The cells are then counted using a hemacytometer (Reichert). After centrifugation under the same conditions, the supernatant is removed and the cells processed using the appropriate Miltenyi Biotec (Auburn, Calif.) negative selection kit to enrich for the desired cell type according to manufacturers instructions. The resulting purified cells are then diluted to 50 ml with IMDM. After centrifugation at 500×g for 10 minutes, the supernatant is removed and the cells resuspended in 15 ml IMDM supplemented with 0.5% heat inactivated fetal calf serum (FCS) (ATCC, Manassas, Va.). After another centrifugation for 10 minutes at 500×g, the supernatant is again removed and the cells resuspended in 7 ml 0.5% FCS in IMDM (assay medium) and transferred to a 15 ml conical centrifuge tube. The cells are then quantitated using a hemacytometer. When enriching for monocytes, the concentration of cells is adjusted to 2×10^7 per ml by centrifugation and removal of the appropriate volume of assay medium. For all other cell types, the tube cap is replaced with one from a 25 cm^2 tissue culture flask (Corning) and the cells stored overnight in a humidified 37° C. incubator with 5% CO2. The concentration of the cells is adjusted as for monocytes just prior to transmigration assay of Example 9.
(§3) Migration away from a chemical or biological agent (chemorepulsion (CR)) was measured using ChemoTx plates (Neuroprobe). These plates contain a planar polycarbonate or polyester membrane that has been etched and perforated so that cells can move along the etched tracks and fall through perforation holes, enabling the cells to be collected and the number of migrated cells quantified (FIGS. 5-6). Several dilutions (normally 4 in 10-fold increments) are prepared of the agent of interest. For neutrophils, plates with 3 μm pore membranes are used, while for all other primary cell types, 5 μm pore membranes are used. Membranes may, or may not, be coated with polyvinylpyrrolidine (PVP) as a wetting agent.
(§4) For spontaneous migration controls and chemorepulsion (CR) assays, 31 μl of assay medium is pipetted into the lower well of the transmigration apparatus (FIGS. 5-6). For spontaneous migration controls and chemoattraction (CA) assays, 29 μl of assay medium is pipetted into upper chamber of the transmigration apparatus (FIG. 5). For CR, the upper well assay medium contains the agent or candidate chemorepellent. […]

Experiment [1] deals with Human primary CD8+ lymphocytes. The experiment can be described thus: Trans-well migration assay (Example 3 method), unimodal fugetaxin test. Type of experiment: cell-based. To be noted: methods of Example 3. On the set-up: key: A “+” in the Table indicates a positive hit as a unimodal fugetaxin, as that term is defined herein, for that particular cell type.
Another experiment concerns Monocyte. The experiment can be described thus: Trans-well migration assay (Example 1), net migratory response. As to conditions: Monocyte; net observed response.
In experiment [2] the test system is Human primary CD4+ lymphocytes. The experiment can be described thus: Trans-well migration assay (Example 3 method), unimodal fugetaxin test. Type of experiment: cell-based. More on the design: key: A “+” in the Table indicates a positive hit as a unimodal fugetaxin, as that term is defined herein, for that particular cell type. As to conditions: methods of Example 3.

In experiment [3] the test system is Human primary neutrophils. The description is as above. The class given is cell-based. More on the design: key to Unimodal fugetaxin hit, Neutrophils: A “+” in the Table indicates a positive hit as a unimodal fugetaxin, as that term is defined herein, for that particular cell type. To be noted: for Unimodal fugetaxin hit, Neutrophils: human neutrophils, methods of Example 3.

The test system of a further experiment is CD8+. Nature of the experiment: High throughput transmigration assay (Example 9), chemorepulsion. The class given is cell-based, human. As to conditions: mean of three donors at concentration of highest activity, range 0.00125-1.25 μM.
Excerpt: as §1, §2, §3, §4

The subject of experiment [4] is Eo-HL60 (HL-60 clone 15 differentiated to eosinophil-like phenotype). Nature of the experiment: Trans-well migration assay (Example 1), net migratory response. As to conditions: net observed response. The class given is cell-based, human.
The subject of another experiment is T lymphocytes. The experiment can be described thus: High throughput transmigration assay (Example 9), chemorepulsion. Type of experiment: cell-based, human. To be noted: one donor, triplicate, ± SD.
Excerpt: as §1, §2, §3, §4

The next experiment relates to B cells. The description is as above. Type of experiment: cell-based, human. On the set-up: key: ratio of chemorepulsion (CR) to spontaneous migration (SM), CR/SM. To be noted: mean of three donors at concentration of highest activity, range 0.00125-1.25 μM.
Excerpt: as §1, §2, §3, §4

The mark [5] stands for this setting: Neutrophils, mean of three donors at concentration of highest activity, range 0.00125-1.25 μM.

We go through four molecules from patent US9617330B2, “Chemorepulsion of cells” (Celtaxsys, Inc., priority 2006, dated 2017).

Procedure for Monocyte: Prior to beginning the assay 0.5% Fetal Calf Serum (FCS) in Iscove's Modified Dulbecco's Medium (IMDM) is prepared and stored on ice (Assay Medium). Migratory cells at a concentration of 2×10^7 cells/ml are suspended in Assay Medium. T-cells isolated from donor blood or buffy coats are allowed to rest overnight in Assay Medium at 37° C. in 5% CO2. Neutrophils, monocytes and B cells are utilized as soon as they are purified from donor blood or other source of human origin. Four serial (10×) dilutions of the ligand are then prepared in Assay Medium (normally 10 μg/ml to 0.01 μg/ml).
Plates are removed from the packaging, leaving the membrane behind and intact. The membrane is set aside. Into each well is pipetted 31 μl of solution. For media controls and fugetaxis (chemorepellent) samples, Assay Medium is used. For chemoattraction samples, the appropriate dilution of agent in assay medium is used.
Using a sterile needle, all small bubbles present in each well are popped and the membrane is carefully placed onto the plate, starting at one side and slowly lowering the other edge onto the plate.
Then 29 μl is pipetted into each circle imprinted on the polycarbonate or polyester membrane. For media controls and chemoattraction samples, Assay Medium is used. For fugetaxis (chemorepellent) samples, the appropriate dilution of ligand in assay medium is used.
To each 29 uL aliquot above is added 2 μl of cells (40,000 cells). It is important to ensure that before beginning the cells are well suspended and that they are mixed. This mixing can be accomplished by agitating the tube between each addition.
The plate is then covered with the supplied lid and incubated 1-3 hours in a humidified incubator at 37° C. in 5% CO2. Following the incubation period, the liquid from the top of the plate is removed with a tissue or similar blotting material (e.g. a Kimwipe). The membrane is carefully removed from the top of the plate and discarded. […] Using a multichannel pipettor, each well of the microplate is rinsed with 25 μl Phosphate Buffered Saline (Mediatech #21-040-CV) and transferred to the same wells in the white microplate. Using a multichannel pipettor, 50 μl CellTiter-Glo Luminescent Cell Viability Assay (Promega #G7572) is added to each well and mixed.
The plate is read using the Perkin Elmer Victor^3V plate reader using the Large Aperture Luminescence setting at 8 mm height above the plate with a dwell time of 1 s to quantify the number of migrated cells.
The results reported reflect the net observed migratory response of the cells to the ligand and are not based on the definition of unimodal fugetaxins.

“Elafin: elastase inhibitor (AQEPVKGPVSTKPGSCPIILIRCAMLNPPNRCLKDTDCPGIKKCCEGSCGMACFVPQ; UniProt P19957 61-117, looked up)”: the “Repellent Index” value in the experiment on Neutrophils (setting [5]) was 2.0; in the experiment on Neutrophils (neutrophils, 0.00125 μM, one donor, triplicate, ± SD) it was 1.33 ± 0.28; in the experiment with Neutrophils (neutrophils, 0.0125 μM, one donor, triplicate, ± SD), 1.31 ± 0.29; with Neutrophils (neutrophils, 0.125 μM, one donor, triplicate, ± SD), 1.48 ± 0.22; in the experiment on Neutrophils (neutrophils, 1.25 μM, one donor, triplicate, ± SD), 2.42 ± 0.52; with CD4+ it was 1.3.
On to “Galectin-3: carbohydrate binding protein (galectin), full-length, purchased; accession P17931/BAA22164/NP_002297”, for which the “Unimodal fugetaxin hit, CD8+” value in [1] is “+”. The “Migratory Response” value in the experiment on Monocyte is reported as “chemorepulsion”. Besides, the “Repellent Index” value with Neutrophils (setting [5]) is 1.6; with CD8+, 1.3. In addition, the “Unimodal fugetaxin hit, CD4+” value in [2] was “+”. In [3], the “Unimodal fugetaxin hit, Neutrophils” value is “+”. Further, the “chemotactic (chemoattractant) versus fugetactic (chemorepellent) response of neutrophils” value in experiment [3] (neutrophils, 1 hour, FIGS. 3 and 4, at 10 uM where stated) is given as “almost three times as fugetactic (chemorepellent) as chemotactic (chemoattractant)”.
As for “HSP70: heat shock protein; accession AAA02807”, the “Migratory Response” value in experiment [4] is on record as “chemorepulsion”. Besides, the “Repellent Index” value is listed as 8.8 in the experiment on Neutrophils (setting [5]); 0.96 ± 0.13 in the experiment with T lymphocytes (0.00125 μM); 1.15 ± 0.24 with T lymphocytes (0.0125 μM); 1.65 ± 0.35 in the experiment on T lymphocytes (0.125 μM); 14.56 ± 0.61 in the experiment with T lymphocytes (1.25 μM); 11.6 in the experiment on CD8+. Further, the “Repellent Index” value in the experiment with CD4+ came out at 4.9. Moreover, the “Unimodal fugetaxin hit, CD4+” value in [2] is reported as “+”. For the same molecule, the “Unimodal fugetaxin hit, Neutrophils” value in experiment [3] was “+”.

B1: CCL19: chemokine (protein, UniProt Q99731 22-98, looked up)
C-C motif chemokine 19: GTNDAEDCCLSVTQKPIPGYIVRNFHYLLIKDGCRVPAVVFTTLRGRQLCAPPDQPWVERIIQRLQRTSAKMKRRSS
Regarding B1, the “Repellent Index” value in the experiment on B cells turned out to be 2.0; with Neutrophils (setting [5]), 1.5; with CD4+ it was 1.7.
